Data on 40 compounds can be found in ChEMBL document CHEMBL3507680, “University of Dundee, Gates Library screen for HepG2 cell viability”.

The data set can be described thus: Human HepG2 cell viability assay in 384 well format. The note with it: HepG2 cells, read-out: Inhibition. In kind it is toxicity, cell-based. Also on record: dose 125 nL, time 70.5 hour; concentration not given beside the values.

The structures appear in SMILES notation.

As to `Cc1nc(C)n(CC2CCCN(Cc3ccccc3C#N)C2)n1` (stereo not given), the cytotoxicity at 70.5 h is 22.8%.

For the compound `COc1cc(CNCc2c(C)nn(CC(C)C)c2N(C)C)ccn1`, the cytotoxicity at 70.5 h amounted to 27.3%. For `CC(C)n1cc(CN2CCCN(C(=O)CN3CCCC3=O)CC2)cn1`, the cytotoxicity at 70.5 h came to 58%.

In the case of `CC(C)n1cc(CN2CCCN(C(=O)C(C)n3cncn3)CC2)cn1` (stereo not given), the cytotoxicity at 70.5 h amounted to 3.68%. In the case of `Cc1cnn(CC(=O)N2CCCN(Cc3cnn(C(C)C)c3)CC2)c1`, the cytotoxicity at 70.5 h was -0.435%. Turning to `CSCCC(=O)N1CCCN(Cc2cnn(C(C)C)c2)CC1`, the cytotoxicity at 70.5 h turned out to be 34.5%.

Consider `CC(C)n1cc(CN2CCCN(C(=O)COC3CCCC3)CC2)cn1`, for which the cytotoxicity at 70.5 h came out at 1.39%. Consider `Cc1nn(CC(C)C)c(N(C)C)c1CNCc1ccc(CO)c(F)c1`, for which the cytotoxicity at 70.5 h is 1.46%. Under `CC(NCc1ccc(F)cc1)c1ccc2[nH]c(=O)[nH]c2c1` (stereo not given) stands 0.625%. For the compound `Cc1cnn(C2CCCN(C(=O)CCc3cnn(C)c3)C2)c1` (stereo not given), the cytotoxicity at 70.5 h is -4.01%.

In the case of `Cc1nc(C)n(CC2CCCN(Cc3ccc4c(c3)OCCO4)C2)n1` (stereo not given), the cytotoxicity at 70.5 h is -1.48%. Turning to `CC(C)c1nc(C2CCCN(C(=O)CCCn3ccnc3)C2)no1` (stereo not given), the cytotoxicity at 70.5 h was -0.752%.

With `CCOc1ccc(C(=O)N2CCCC2c2c(C)nn(C)c2Cl)cn1` (stereo not given), the cytotoxicity at 70.5 h is -1.78%. For `Brc1cccc(-c2noc(CN3CCOCC3)n2)c1` the value was -2.61%; for `COc1ccc(NC(=O)C(C)n2cncn2)cn1` (stereo not given), -2.08%. For `CC(C(=O)NCc1ccc(N2CCCC2)nc1)n1cncn1` (stereo not given) the value was -0.612%; for `CC1COCCN1Cc1nc(-c2ccsc2)no1` (stereo not given), -3.54%; for `CC(C(=O)Nc1ccc(N2CCCC2)nc1)n1cccn1` (stereo not given), -0.411%.

With `Cc1cnn(C2CCCN(C(=O)Cc3ccc(C)s3)C2)c1` (stereo not given), the cytotoxicity at 70.5 h is -0.137%.

Consider `Cc1cnn(C2CCCN(C(=O)CCc3ccncc3)C2)c1` (stereo not given), for which the cytotoxicity at 70.5 h is -0.811%. `CC(C)n1cc(CN2CCCN(C(=O)C(C)n3cccn3)CC2)cn1` (stereo not given): the cytotoxicity at 70.5 h is -2.97%. Under `Cc1nc(C)n(CC2CCCN(Cc3cccc(C(N)=O)c3)C2)n1` (stereo not given) stands -1.85%; under `Cc1nc(C)n(CC2CCCN(Cc3cc(C#N)ccc3F)C2)n1` (stereo not given), 0.508%. Under `CC(C)n1cc(CN2CCCN(C(=O)C3CCCN3C)CC2)cn1` (stereo not given) stands -3.1%; under `Cc1nn(C)c(C)c1C1CCCN1C(=O)c1ccc2c(c1)OCCO2` (stereo not given), -7.1%; under `CC(C)c1nc(C2CCCN(C(=O)CCc3cscn3)C2)no1` (stereo not given), -2.82%. For `Cc1nn(C)c(Cl)c1C1CCCN1C(=O)c1ccc(C(N)=O)cn1` (stereo not given) the value was 54.9%. Regarding `Cc1nn(C)c(Cl)c1C1CCCN1C(=O)c1ccncc1` (stereo not given), the cytotoxicity at 70.5 h came out at 0.652%.

For `CCOc1ccc(CNC(C)c2ccc3[nH]c(=O)[nH]c3c2)cc1` (stereo not given), the cytotoxicity at 70.5 h is 1.32%. On to `Cc1ccccc1C1(C(=O)NCCN2CCC(C)CC2)CCOCC1`, for which the cytotoxicity at 70.5 h was 17.6%. Regarding `COc1ccccc1C1(C(=O)NCCN2CCCCC2)CCOCC1`, the cytotoxicity at 70.5 h came out at 15.9%. As to `CC(C)(C)c1nnc(CN2CCCC2Cn2cncn2)o1` (stereo not given), the cytotoxicity at 70.5 h was -11.3%. Under `Cc1cccc(C(=O)NCc2cccnc2N(C)C)n1` stands 1.42%; under `Cc1ccc(N2CCCC(NCc3nnc(-c4ccco4)o3)C2)nn1` (stereo not given), -13.2%; under `Cc1ncsc1C(=O)N(Cc1ccccc1)C1CC1`, -19.8%.

For `c1ccc(-c2nnc(CNC3CCCN(c4cccnn4)C3)o2)cc1` (stereo not given), the cytotoxicity at 70.5 h is -16.9%. As for `COc1ncccc1CNC(=O)c1cc(Cl)ccn1`, the cytotoxicity at 70.5 h was -8.01%.

As for `O=C(O)c1cccc(S(=O)(=O)N2CCOc3ccccc32)c1`, the cytotoxicity at 70.5 h is -12.8%. As for `CN(C)c1cc(CNC(=O)Nc2ccc(N3CCCC3)nc2)ccn1`, the cytotoxicity at 70.5 h is 1.53%. Under `CCC(NC(=O)C1CC1)c1ccccc1OCC(=O)N1CCCC1` (stereo not given) stands -6.4%.
